# Source: publication PMC9645260, “Small-molecule inhibitors of P-Rex guanine-nucleotide exchange factors” (Small GTPases, 2022)
# Legend:
# Rac1 or Rac2 = experiment: Basal GTP-loading of Rac in the absence of P-Rex1 (liposome-based assay); type: biochemical, human; settings: 10 µM
# Excerpt: All small GTPases and GEFs used were human recombinant proteins. EE-Rac1, EE-Rac2, GST-Cdc42 or GST-RhoA were expressed in Sf9 cells by baculoviral transduction and purified using their epitope tag in their post-translationally prenylated form using Triton X-114 phase separation, essentially as previously described. Briefly, frozen pellets from a 1 litre culture of Sf9 cells transduced with high-titre baculovirus expressing the small GTPase were resuspended in ice-cold Sf9-cell lysis buffer 1 (1x PBS, 40 mM HEPES pH 7.5 at RT, 5 mM MgCl2, 10 mM EGTA, 300 µM GDP, 1 mM DTT, 200 µM PMSF, 20 μg/ml each of leupeptin, pepstatin A, aprotinin and antipain) and lysed by sonication. Triton X-114 was added (to 1% final concentration), and samples were ultracentrifuged at 118,000 × g for 50 min at 4°C. The supernatant was warmed at 37°C until cloudy (30–60 seconds) and centrifuged at 1300 × g for 2 min at 37°C. The upper phase containing non-lipid modified GTPase was discarded and replaced with ice-cold Sf9-cell lysis buffer. The warming/centrifugation steps were repeated twice and lipid-modified GTPase resuspended in ice-cold Sf9-cell lysis buffer 1 supplemented with Triton X-100 (1% final concentration), followed by ultracentrifugation at 118,000 × g for 50 min at 4°C. […] Protein concentration and purity was determined by coomassie staining of SDS-PAGE gels. […]
# full-length P-Rex1 = target: T1, full-length P-Rex1 (Homo sapiens, UniProt Q8TCU6); experiment: Liposome-based GEF activity assay, PIP3-stimulated full-length P-Rex1; type: biochemical; settings: for effect on PIP3-stimulated Rac-GEF activity of full-length P-Rex1: 1, 5 and 10 µM, Rac1 or Rac2 as substrate
# T1 construct: Full-length N-terminally EE-tagged P-Rex1, P-Rex2, the P-Rex1 DH and DHPH domains and the P-Rex2 DH domain were produced in Sf9 cells; made in house; host or cells: Sf9 cells (baculovirus)
# T1 sequence (Q8TCU6 whole entry, the tested form may be a part): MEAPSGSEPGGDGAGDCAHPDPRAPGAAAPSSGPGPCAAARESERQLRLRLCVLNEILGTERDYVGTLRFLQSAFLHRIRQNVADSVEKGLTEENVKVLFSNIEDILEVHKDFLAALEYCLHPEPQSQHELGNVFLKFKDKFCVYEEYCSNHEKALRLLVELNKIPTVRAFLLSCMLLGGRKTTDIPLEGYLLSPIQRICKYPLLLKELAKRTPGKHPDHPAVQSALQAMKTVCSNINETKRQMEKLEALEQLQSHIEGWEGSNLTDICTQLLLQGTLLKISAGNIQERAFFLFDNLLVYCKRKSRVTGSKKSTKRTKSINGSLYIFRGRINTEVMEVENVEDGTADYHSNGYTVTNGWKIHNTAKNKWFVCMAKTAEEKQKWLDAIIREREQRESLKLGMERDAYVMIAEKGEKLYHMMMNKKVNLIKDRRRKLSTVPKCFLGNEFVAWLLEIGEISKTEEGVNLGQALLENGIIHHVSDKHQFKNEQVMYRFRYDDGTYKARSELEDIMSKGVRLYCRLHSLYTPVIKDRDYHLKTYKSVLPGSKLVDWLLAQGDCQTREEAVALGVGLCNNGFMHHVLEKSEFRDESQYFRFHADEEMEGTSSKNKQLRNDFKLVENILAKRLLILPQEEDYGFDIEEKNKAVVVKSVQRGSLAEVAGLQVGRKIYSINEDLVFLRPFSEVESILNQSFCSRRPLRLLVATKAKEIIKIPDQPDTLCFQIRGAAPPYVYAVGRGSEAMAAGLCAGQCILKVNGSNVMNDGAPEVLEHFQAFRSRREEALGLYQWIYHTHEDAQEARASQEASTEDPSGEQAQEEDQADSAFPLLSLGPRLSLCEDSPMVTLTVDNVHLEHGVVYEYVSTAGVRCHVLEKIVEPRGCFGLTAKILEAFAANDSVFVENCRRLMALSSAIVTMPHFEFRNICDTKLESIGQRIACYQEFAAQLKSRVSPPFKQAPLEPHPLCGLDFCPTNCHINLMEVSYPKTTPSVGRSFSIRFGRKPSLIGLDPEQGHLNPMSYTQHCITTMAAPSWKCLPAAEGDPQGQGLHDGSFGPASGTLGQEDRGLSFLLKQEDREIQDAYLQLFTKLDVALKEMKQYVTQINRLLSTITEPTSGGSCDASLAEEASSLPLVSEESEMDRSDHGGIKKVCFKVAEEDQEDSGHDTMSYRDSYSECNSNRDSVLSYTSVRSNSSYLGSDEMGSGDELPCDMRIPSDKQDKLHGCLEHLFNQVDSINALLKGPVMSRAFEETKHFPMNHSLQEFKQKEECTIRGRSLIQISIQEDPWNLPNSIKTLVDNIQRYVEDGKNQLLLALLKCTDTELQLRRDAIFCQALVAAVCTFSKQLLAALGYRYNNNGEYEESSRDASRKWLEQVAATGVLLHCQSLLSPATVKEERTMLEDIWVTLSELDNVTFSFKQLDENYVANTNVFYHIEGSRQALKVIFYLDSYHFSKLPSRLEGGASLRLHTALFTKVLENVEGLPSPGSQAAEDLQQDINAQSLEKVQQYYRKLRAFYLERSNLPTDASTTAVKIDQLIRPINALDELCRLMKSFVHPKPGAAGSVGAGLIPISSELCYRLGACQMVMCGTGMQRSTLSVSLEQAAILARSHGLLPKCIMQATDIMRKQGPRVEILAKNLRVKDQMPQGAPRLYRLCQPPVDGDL
# Excerpt: All small GTPases and GEFs used were human recombinant proteins. EE-Rac1, EE-Rac2, GST-Cdc42 or GST-RhoA were expressed in Sf9 cells by baculoviral transduction and purified using their epitope tag in their post-translationally prenylated form using Triton X-114 phase separation, essentially as previously described. Briefly, frozen pellets from a 1 litre culture of Sf9 cells transduced with high-titre baculovirus expressing the small GTPase were resuspended in ice-cold Sf9-cell lysis buffer 1 (1x PBS, 40 mM HEPES pH 7.5 at RT, 5 mM MgCl2, 10 mM EGTA, 300 µM GDP, 1 mM DTT, 200 µM PMSF, 20 μg/ml each of leupeptin, pepstatin A, aprotinin and antipain) and lysed by sonication. Triton X-114 was added (to 1% final concentration), and samples were ultracentrifuged at 118,000 × g for 50 min at 4°C. The supernatant was warmed at 37°C until cloudy (30–60 seconds) and centrifuged at 1300 × g for 2 min at 37°C. The upper phase containing non-lipid modified GTPase was discarded and replaced with ice-cold Sf9-cell lysis buffer. The warming/centrifugation steps were repeated twice and lipid-modified GTPase resuspended in ice-cold Sf9-cell lysis buffer 1 supplemented with Triton X-100 (1% final concentration), followed by ultracentrifugation at 118,000 × g for 50 min at 4°C. For EE-tagged GTPases, supernatants were incubated with anti-EE antibody covalently coupled to protein G-Sepharose beads (anti-EE beads, Onyx Pharmaceuticals) and incubated with end-over-end rotation for 90 min on ice. Beads were washed 3 times in wash buffer (PBS, 5 mM MgCl2, 1 mM DTT, 10 μM GDP, 1 mM EGTA, 0.2% Triton X-100) and 5x in elution buffer (40 mM HEPES pH 7.5, 150 mM NaCl, 5 mM MgCl2, 1 mM EGTA, 1 mM DTT, 10 µM GDP). Protein was eluted by three incubations with elution buffer containing peptide Ac-EEYMPME (Activotec, Comberton, UK) and cholate (first 1%, then twice 0.5%) for 20 min on ice. For GST-tagged GTPases, supernatants were incubated with glutathione Sepharose beads and were eluted with glutathione in the same manner. Proteins were concentrated in a YM-10 Centricon (Millipore) at 5000 × g, 4°C. Protein concentration and purity was determined by coomassie staining of SDS-PAGE gels. For use in the mant-GTP assay, EE-Rac 1 was expressed in BL21 (DE3) bacteria (NEB, C25271), by induction with 0.5 mM IPTG overnight at 18°C. Bacterial pellets from 500 ml cultures were resuspended in 20 ml bacterial lysis buffer (40 mM Hepes, pH 7.5 at 4°C, 150 mM NaCl, 1% Triton X-100, 5 mM MgCl2, 1 mM DTT, 300 μM GDP, 200 µM PMSF, and 20 μg/ml each of leupeptin, pepstatin A, aprotinin and antipain) and were lysed by sonication. 5 μg/ml DNAse and 5 μg/ml RNAse were added and the lysate incubated on ice for 10 min. […]
SMILES,effect on basal GTP-loading of Rac1 or Rac2 in the absence of P-Rex1 (Rac1 or Rac2),effect on PIP3-stimulated Rac-GEF activity of full-length P-Rex1 (full-length P-Rex1),"reduction of PIP3-stimulated Rac-GEF activity of full-length P-Rex1 (full-length P-Rex1; 10 µM, 50 nM P-Rex1, 100 nM prenylated Rac1, 10 µM PIP3)"
CC1CCC(C(C)C)c2nn(C(=O)/C=C\c3ccccc3)c(-c3cccc4ccccc34)c21 (centres unmarked) [#10],neither compound affected,inhibited,–
"COc1ccc(-c2[nH]nc3c2C(c2ccc(-c4ccc(Cl)cc4)o2)C(C#N)=C(N)O3)cc1 (centres unmarked) [PREX-in1, 6-amino-4-[5-(4-chlorophenyl)-2-furyl]-3-(4-methoxyphenyl)-2,4-dihydropyrano[2,3-c]pyrazole-5-carbonitrile]",neither compound affected,inhibited,56%
